Nine compounds from patent US20160367497A1, “METHODS AND COMPOSITIONS FOR TREATING NEUROPATHIES” (Washington University, priority 2007, published 2016) can be followed below.

Experiment [1] has as its system DRG neuronal explant cultures. Nature of the experiment: in vitro Wallerian degeneration assay, DRG explant neurite transection. It counts as cell-based, mouse. Particulars: for neurite protection after transection: 1 mM applied for 24 hours before neurite transection; for increase in intact neurites at 48 hours after transection: 1 mM exogenous application for 24 hours. On the procedure: To identify the mechanism of delayed axonal degeneration mediated by the Wlds protein, we employed an in-vitro Wallerian degeneration model. Primary DRG explant neurons were infected with lentivirus expressing the appropriate proteins, and axons were injured by either removal of the neuronal cell body (transection) or growth in vincristine (toxic).
Mouse DRG explants from E12.5 embryos were cultured in the presence of 1 nM nerve growth factor. Non-neuronal cells were removed from the cultures by adding 5-fluorouracil to the culture medium. Transection of neurites was performed at 10-20 DIV using an 18-gauge needle to remove the neuronal cell bodies. Incubation with β-nicotinamide adenine dinucleotide (Sigma) or Sirtinol (Calbiochem) was performed using conditions indicated in the text or figures.
Quantitative analysis of axonal degeneration was performed as previously described (Zhai, et al., Neuron 39:217-25, 2003). Briefly, the cultures were examined using phase contrast microscopy at the indicated times. Axons with a fragmented, non-refractile appearance were designated as “degenerated.” At each time point, at least 200 singly distinguishable axons were blindly scored from several randomly taken images of each culture. Each condition was tested in triplicate explants in each experiment. Results were obtained from 2-4 independent experiments for each condition. Statistical analysis was performed by Student's T test. For calculations of neurite-covered area, digitally captured images from quadruplicate samples of two independent experiments were analyzed using analysis 3.1 software (Soft Imaging System, Lakewood, Colo.).
Cell culture, in vitro axotomy, and quantification of axonal degeneration. Mouse DRG explants from E12.5 embryos were cultured in the DMEM containing 10% FCS and 1 nM nerve growth factor. Non-neuronal cells were removed from the cultures by adding 5-fluorouracil to the culture media. Transection of neurites was performed at 14-21 DIV using an 18-gauge needle to remove the neuronal cell bodies. Lentiviral expression vectors were generated. Lentiviral infection was performed 3-7 days prior to axonal transection for 24 hr. Quantitative analysis of neurite degeneration was performed.

Experiment [2] deals with neuro2A cells. Description: cellular ATP levels, luciferase-based assay in neuro2A cells. In kind it is cell-based. To be noted: 2 hr. The protocol:
To explore the role of polyphenols, in particular, of resveratrol, we tested whether resveratrol altered the activity of AMPK in neuronal cells. Neuro2a neuroblastoma cells were treated with resveratrol (10 μM) and AMPK activation was examined using phospho-AMPK specific antibodies. […] To confirm that AMPK activation by resveratrol results in typical AMPK-mediated downstream responses, we monitored phosphorylation of ACC (acetyl Co-A carboxylase), a primary target of activated AMPK. […] To examine a potential mechanism of resveratrol-mediated AMPK activation, we measured cellular ATP levels as a decreased ATP:AMP ratio increases the phosphorylation of AMPK. ATP levels were monitored using a luciferase-based assay in neuro2A cells treated with resveratrol or Oligomycin, an inhibitor of mitochondrial oxidative phosphorylation and therefore ATP production. While the ATP concentration dropped from 5.874 μM in DMSO-treated cells (control) to 0.976 μM in Oligomycin treated cells within 2 hr, the ATP concentration in resveratrol-treated Neuro2a cells was not altered from control either at 2 hr (6.33 μM) or 24 hr (6.42 μM).

For experiment [3], the system named is optic nerve (retinal ganglion cell axons). Description: optic nerve transection after intravitreal injection, neurofilament Western blot. It counts as in vivo, rat. Particulars: 24 hours before transection, 4 days after transection. The protocol:
FIG. 9 illustrates optic nerve transection after intravitreal injection of NAD biosynthetic substrates NAD, NMN, NmR, or Nam was injected into intravitreal compartment of left rat eye and allowed to incorporate retinal ganglion cells for 24 hours after which, left optic nerve was transected by eye enucleation and right and left optic nerves were collected at 4 days after transection and analyzed by Western blotting in which optic nerves transected from […] without any treatment prior to axotomy were used for negative control; showing in the figure, the quantitative analysis data of percentage of remaining neurofilament immunoreactivity from transected optic nerve relative to non-transected±S.D.
Administration of NAD biosynthetic substrates and optic Nerve transection. Nam, NMN, NmR, or NAD was dissolved in PBS at the concentration of 100 mM or 1 M. Each of 5 μl solution was injected into left intravitreal component under the anesthesia at a rate of […]. The left optic nerve was transected at 24 hours after intravitreal injection and optic nerve was recovered at indicated time. Optic nerve tissue was homogenized in 100 μl of a buffer containing 100 mM tris-HCl (pH 6.8), 1% SDS, and 1 mM DTT. Fifty μg of protein for each sample was analyzed by the Western blotting using anti-neurofilament antibody 2H3 (Developmental Studies Hybridoma Center) and peroxidase-conjugated secondary antibody (Jackson ImmunoResearch). The degeneration rate was calculated from the ratio of the neurofilament immunoreactivity of transected vs. contralateral nerves.
Transection of optic nerve is an in vivo model which can be used to investigate mechanisms leading to Wallerian degeneration and following retinal ganglion cell (RGC) death observed in human diseases such as glaucoma. In the C57BL/Wlds mouse strain, optic nerve degeneration during Wallerian degeneration after axotomy is dramatically slowed. In addition, intravitreal injection is used for screening of compounds that protect RGC axon from degeneration in vivo and thus we can asses the axon protective effect of each NAD biosynthetic substrates in vive by intraocular injection of compounds including NAD, NMN, NmR, and Nam. From in vitro Wallerian degeneration assay, 1 mM of NAD, NMN, and NmR in the culture media is enough to protect axon from degeneration. We initially injected 5 μl of 100 mM or 1 M NAD solution into left intravitreal compartment. After 24 hours incubation, left optic nerve was transected and control (right) and axotomized (left) optic nerve were collected at 3, 4, and 5 days after transection. Neurofilament immunoreactivity from the axotomized optic nerve was measured and normalized against the value obtained from the right side of the optic nerve.
(In general: Immunoblotting shows a protein as a band on a membrane.)

In experiment [4] the test system is neuro2A cells. Description: neurite outgrowth in Neuro2a cells. In kind it is cell-based. The protocol: FIG. 11A-D illustrates the resveratrol and AICAR stimulation of neurite outgrowth in Neuro2a cells. Neuro2a cells were switched to serum-starvation medium (medium containing 0.2% FCS) and treated with DMSO (vehicle control), resveratrol (10 μM) or AICAR (1 mM). (A) Serum deprivation of Neuro2a cells results in growth of short neurites that increase in length over 72 h. (B) Resveratrol induced rapid neurite outgrowth resulting in elaborate neurite network formation by 48 h. (C) AICAR stimulated extensive neurite outgrowth similar to that observed with resveratrol. (D).
FIG. 12A-M illustrates the dependency of resveratrol-induced neurite outgrowth and mitochondrial biogenesis on AMPK. Neuro2a cells were infected with lentivirus expressing GFP only (FUGW, control), dominant negative AMPK (dnAMPK) or constitutively active AMPK (caAMPK). Three days later cells were shifted to serum-starvation medium containing DMSO (control) or resveratrol (10 μM). In addition, uninfected Neuro2a cells in serum-starvation medium were treated with resveratrol alone, the AMPK inhibitor Compound C (CC, Biomol International L.P. (Plymouth Meeting, Pa.)) (10 μM) alone or with resveratrol and CC together. Images of the cultures captured in bright field and green fluorescence were overlaid to visualize neurite outgrowth. […] Neurite length in cells treated with caAMPK+resveratrol is also shown (G). […] Values were normalized to the 18S transcript. Data shown is representative of two independent experiments.
Cell culture and Reagents. Neuro2 cells obtained from ATCC were grown in MEM with 1.5 g/L sodium bicarbonate, 0.1 mM nonessential amino acids, 0.1 mM sodium pyruvate, 2 mM L-glutamine with 10% FCS. For differentiation, cells were switched to serum-starvation medium (containing 0.2% FCS). For neurite outgrowth measurements, experiments were done in quadruplicate and 100 neurites per well were randomly measured using the Metamorph software. Dorsal root ganglia sensory and cortical neurons were established from E13.5 mouse embryos, maintained in neurobasal medium supplemented with B27 (and NGF for DRG neurons) and infected with lentiviruses as described (Araki et al., 2004, Science 305:1010-1013; Hawley et al., 2005, Cell Metab 2:21-23). Resveratrol was a gift from Sirtris Pharmaceuticals (Cambridge Mass.) and AICAR was obtained from Toronto Research (North York, Canada). Splitomycin and Compound C were purchased from Biomol (Plymouth Meeting, Pa.) and Calbiochem (San Diego, Calif.). Sirtinol and nicotinamide were purchased from Sigma (Saint Louis, Mo.)
Neuro2a cells are a widely used as in vitro model of neuronal differentiation. These cells cease to proliferate and begin to differentiate, as evidenced by neurite outgrowth, in response to serum starvation, retinoic acid, or growth factors like neurotrophins and GDNF family ligands. […] Neuro2a cells grown under serum starvation conditions (0.2% fetal calf serum) were treated with AICAR (1 mM) or resveratrol (10 μM).
Since resveratrol activated AMPK and altered the differentiation of Neuro2a cells, we next asked whether AMPK activity was required for resveratrol-induced neurite outgrowth. To address this issue, we infected Neuro2a cells with lentivirus expressing either GFP alone (FUGW-control) or dominant negative AMPK (dnAMPK). After 3 days growth to allow robust lentiviral transgene expression, the medium was replaced with serum starvation medium. […] Resveratrol-induced neurite outgrowth was reduced in the presence of the AMPK pharmacological inhibitor Compound C (CC 10 μM) further supporting the importance of AMPK activity for resveratrol-induced neurite outgrowth.

Experiment [5] deals with Tfam, PGC-1α and MFN2 mRNA. Nature of the experiment: mitochondrial biogenesis markers, quantitative RT-PCR in Neuro2a cells. It counts as cell-based. Particulars: with resveratrol 10 μM; Compound C 10 μM or dominant negative AMPK expression.
Procedure: Three days later cells were shifted to serum-starvation medium containing DMSO (control) or resveratrol (10 μM). In addition, uninfected Neuro2a cells in serum-starvation medium were treated with resveratrol alone, the AMPK inhibitor Compound C (CC, Biomol International L.P. (Plymouth Meeting, Pa.)) (10 μM) alone or with resveratrol and CC together. […] Values were normalized to the 18S transcript. Data shown is representative of two independent experiments.
Protein and mRNA analysis. […] Quantitative RT-PCR analysis was performed using Sybr-Green methodology on a model 7700 instrument (Applied Biosystems) as previously described (Araki et al., 2004, Science 305:1010-1013).
We treated Neuro2a cells for 3d with either DMSO (control) or resveratrol (10 μM) in the presence or absence of the AMPK inhibitor Compound C (10 μM). We assessed mitochondrial biogenesis by monitoring mRNA levels of mitofusin 2 (MFN2), a mitochondrial protein and marker of mitochondrial mass and two key regulators of mitochondrial biogenesis, peroxisome proliferator activated receptor γ coactivator 1α (PGC1α) and mitochondrial transcription factor A (Tfam) (Kelly, et al., 2004, Genes Dev 18:357-368).
The subject of experiment [6] is DRG neurons. Description: axonal injury of DRG neurons after hypoxia and reoxygenation. In kind it is cell-based. To be noted: preincubation 45 min or lentiviral expression; 0.1% O2 8 or 16 hrs, 20 hrs reoxygenation. On the procedure:
FIG. 18 illustrates that activation of AMPK protects axons while inhibition of AMPK function enhances axonal injury during oxygen deprivation.
To examine whether AMPK activation prior to hypoxic stress protects axons from injury, either constitutively active AMPK (CaAMPK) was expressed in DRG neurons, or neurons were preincubated with the AMPK activator AICAR for 45 min prior to hypoxia. […] Thus, treatments that increase AMPK activity (e.g. resveratrol, AICAR) can block the axonal damage and are neuroprotective.

Each structure is given as a SMILES string.

As for `Nc1ncnc2c1ncn2[C@@H]1O[C@H](COP(=O)(O)OP(=O)(O)OC[C@H]2O[C@@H]([n+]3cccc(C(=O)O)c3)[C@H](O)[C@@H]2O)[C@@H](O)[C@H]1O` [NaAD, nicotininc acid adenine dinucleotide], in experiment [1], the “neurite protection after transection” value is given as “slight protection” and the “increase in intact neurites at 48 hours after transection” value (from here on “increase in intact neurites at 48 hours”) was “less increase in intact neurites at 48 hours compared with NAD”.

In the case of `CC[C@H]1/C=C/C=C/C[C@@H](C)[C@H](O)[C@@](C)(O)C(=O)[C@@H](C)[C@H](O)[C@@H](C)C(=O)[C@@H](C)[C@H](O)[C@@H](C)/C=C/C(=O)O[C@@H]2[C@H](C)[C@H](CC1)O[C@]1(CC[C@H](C)[C@H](C[C@@H](C)O)O1)[C@H]2C` [Oligomycin, reference compound], the ATP concentration in experiment [2] turned out to be 0.976 µM.

As for `NC(=O)c1ccc[n+]([C@@H]2O[C@H](COP(=O)([O-])OP(=O)(O)OC[C@H]3O[C@@H](n4cnc5c(N)ncnc54)[C@H](O)[C@@H]3O)[C@@H](O)[C@H]2O)c1` [NAD, nicotinamide adenine dinucleotide], the “neurofilament immunoreactivity of axotomized optic nerve, of non-axotomized optic nerve” value in experiment [3] (5 μl of 100 mM intravitreal) was 78±22%; in experiment [3] (5 μl of 1 M intravitreal), 77±27%.

`NC(=O)c1ccc[n+]([C@@H]2O[C@H](COP(=O)([O-])O)[C@@H](O)[C@H]2O)c1` [NMN, nicotinamide mononucleotide]: in experiment [1], the “neurite protection after transection” value is listed as “successfully saved neurites from degeneration” and the “increase in intact neurites at 48 hours” value is “comparable increase in intact neurites”. Also, the “neurofilament immunoreactivity of axotomized optic nerve, of non-axotomized optic nerve” value in experiment [3] (5 μl of 100 mM intravitreal) is 60±25%.

Regarding `c1cc(-c2cnn3cc(-c4ccc(OCCN5CCCCC5)cc4)cnc23)ccn1` [Compound C], in experiment [4] (resveratrol 10 μM, Compound C 10 μM, SIRT1 inhibitors, STO 609 2.5 μM or dnAMPK expression), the “effect on resveratrol-stimulated neurite outgrowth” value is reported as “reduced”. Also, the “neurite growth, inhibitor by itself” value in experiment [4] (without resveratrol) is “did not cause any significant inhibition of neurite growth”. In addition, in experiment [5], the “effect on resveratrol-induced upregulation of mitochondrial markers” value is recorded as “severely diminished”. Also, in experiment [6], the “axonal injury (axonal beading) after hypoxia” value is on record as “severe axonal injury”.

For `NC(=O)c1cccc(N)c1` [3AB, 3-aminobenzamide, reference compound], the “effect on NAD-dependent axonal protection (NDAP)” value in experiment [1] (neurons cultured in 1 mM NAD, Sirtinol 100 μM, 3AB 20 mM or siRNA lentivirus, 12 to 72 hr after transection) is given as “had no effect on NDAP”.

For the compound `NC(=O)c1ccc[n+]([C@@H]2O[C@H](CO)[C@@H](O)[C@H]2O)c1` [NmR, nicotinamide riboside], in experiment [1], the “neurite protection after transection” value was “saved neurites as well as NAD” and the “increase in intact neurites at 48 hours” value is recorded as “comparable increase in intact neurites”. Further, the “neurofilament immunoreactivity of axotomized optic nerve, of non-axotomized optic nerve” value in experiment [3] (5 μl of 100 mM intravitreal) is given as 72±19%.

On to `O=C(O)c1ccc[n+]([C@@H]2O[C@H](COP(=O)(O)O)[C@@H](O)[C@H]2O)c1` [NaMN, nicotinate mononucleotide], for which, in experiment [1], the “neurite protection after transection” value was “saved neurites as well as NAD” and the “increase in intact neurites at 48 hours” value is reported as “comparable increase in intact neurites”.

Take `O=C(O)c1cccnc1` [Na, nicotinic acid]: the “neurite protection after transection” value in experiment [1] was “failed to save neurites”.
